{"source": "patent US20070128596A1", "about": "“Reagents and methods for identifying and modulating expression of tumor senescence genes” (priority 2002, published 2007)", "format_in_all_cases": "cell-based, human", "key": {"[1]": {"test_system": "HCT116 colon carcinoma cells", "assay": "Clonogenicity of sorted populations (colony formation)", "details": "PKH2hi fraction separated after doxorubicin treatment", "experimental": "(§1) HCT116 colon carcinoma cells (Myohanen et al., 1998, Cancer Res. 58: 591-593; Accession No. CCL-247, American Type Culture Collection, Manassas, Va.), including wild-type, p21−/− (clone 80S4) and p53−/− (clone 379.2) cell lines (a gift of Dr. B. Vogelstein, Johns Hopkins University) were grown in Dulbecco Modified Eagle Medium with 10% FC2 serum. Cells were plated at 5×10^6 cells per 15-cm plate and treated for 24-hr with 200 nM doxorubicin. Thereafter, cells were allowed to recover in drug-free media up to 10 days. For fluorescence-activated cell sorter (FACS) analysis of cell division, cells were labeled with PKH2 (a lipophilic fluorophore; Sigma Chemical Co., St. Louis, Mo.), which stably incorporates into the plasma membrane and distributes evenly between daughter cells, resulting in gradual decrease in PKH2 fluorescence during consequent cell divisions (Horan et al., 1989, Nature 340: 167-168). FACS analysis and cell sorting carried out as described in Chang et al. (1999, Cancer Res. 59: 3761-3767 and 1999, Oncogene 18: 4808-4818). Sorted fractions of senescent (pKH2^hi) and proliferating (PKH2^lo) cells (90-95% purity) were analyzed for DNA content using propidium iodide (PI) staining and FACS analysis as described by Jordan et al. (1996, Cancer Res. 56: 816-825). […]"}, "[2]": {"test_system": "HCT116 colon carcinoma cells", "assay": "Senescence-associated β-galactosidase (SA-β-gal) staining", "details": "PKH2hi fraction after 200 nM doxorubicin 24 hr", "experimental": "as §1"}, "[3]": {"test_system": "HCT116 colon carcinoma cells", "assay": "DNA content analysis by propidium iodide staining and FACS", "details": "PKH2hi fraction after 200 nM doxorubicin 24 hr", "experimental": "as §1"}, "Maspin": {"test_system": "Maspin", "assay": "Immunoblotting of protein products of senescence-associated genes in doxorubicin-treated HCT116 cells", "experimental": "(§2) In these experiments, poly(A)^+ RNA and protein extracts were prepared from PKH2^lo and PKH2^hi cell populations, separated in different experiments 6, 9 or 10 days after release from doxorubicin. Fluorescent cDNA probes were synthesized and used for hybridization with the Human UniGEM V 2.0 cDNA microarray and signal analysis (assays were conducted by IncyteGenomics, St. Louis, Mo., as described at that company's web site, www.incyte.com). Changes in gene expression were verified by semi-quantitative reverse transcription-PCR (RT-PCR), essentially as described (Noonan et al., 1990, Proc. Natl. Acad. Sci. USA 87: 7160-7164), using β-actin as an internal normalization standard and the oligonucleotide primers shown in Table 3. RT-PCR analysis was carried out using two pairs of proliferating- and senescent-cell RNA preparations isolated in independent experiments, with the same results; for a subset of the genes, the assays were reproduced with the same pair of RNA samples. […] Bands were detected using horseradish peroxidase-labeled secondary antibodies and ECL chemiluminescence detection kit (Amersham Pharmacia Biotech, Piscataway, N.J.)."}, "[4]": {"test_system": "HCT116 colon carcinoma cells", "assay": "FACS analysis of cell division by PKH2 fluorescence after doxorubicin treatment", "details": "200 nM doxorubicin 24 hr", "experimental": "as §1\nChanges in PKH2 fluorescence were monitored by FACS on different days after doxorubicin treatment. […]"}, "p21": {"test_system": "p21", "assay": "Immunoblotting of p53 and p21 in wild type, p21−/− and p53−/− HCT116 cell lines treated with doxorubicin", "details": "wild type vs p53−/− and p21−/− HCT116", "experimental": "as §2"}, "[5]": {"test_system": "senescence-associated genes in HCT116 cells", "assay": "RT-PCR of senescence-associated gene expression in wild type, p21−/− and p53−/− HCT116 cells upon doxorubicin treatment", "experimental": "as §2\nTo elucidate the roles of p53 and p21 in the observed changes in gene expression, expression of senescence-associated genes upon doxorubicin treatment of wild type, p21−/− and p53−/− HCT116 cells was analyzed. RNA samples were isolated before the addition of the drug, immediately after one-day treatment with doxorubicin, and on three consecutive days after the removal of the drug."}}}
{"compound": "COc1cccc2c1C(=O)c1c(O)c3c(c(O)c1C2=O)C[C@@](O)(C(=O)CO)C[C@@H]3O[C@H]1C[C@H](N)[C@H](O)[C@H](C)O1", "note": "[doxorubicin]", "values": [{"measurement": "colony formation by PKH2hi cells", "setting": "[1]", "result": "have lost their proliferative capacity"}, {"measurement": "SA-β-gal staining of PKH2hi cells", "setting": "[2]", "result": "stained positively for SA-β-gal"}, {"measurement": "cell cycle phase of PKH2hi cells (DNA content)", "setting": "[3]", "result": "remained in G2"}, {"measurement": "Maspin induction at the protein level", "setting": "Maspin", "result": "very strong induction"}, {"measurement": "day on which a proliferating cell population (PKH2lo) emerged", "setting": "[4]; days after treatment", "result": 4, "unit": "days"}, {"measurement": "growth arrest of PI-negative cells (PKH2 fluorescence)", "setting": "[4]; first 2-3 days after treatment", "result": "remained growth-arrested"}, {"measurement": "p21 protein induction, dependence on p53", "setting": "p21", "result": "strongly dependent on p53"}, {"measurement": "Maspin induction in p53−/− cells", "setting": "[5]; p53−/− HCT116", "result": "still readily detectable in p53−/− cells"}, {"measurement": "BTG2 induction in p53−/− cells", "setting": "[5]; p53−/− vs wild type HCT116", "result": "inducible by doxorubicin in p53−/− cells, albeit to a lesser degree than in the wild type cells"}, {"measurement": "EPLIN induction in the unsorted cells", "setting": "[5]; unsorted HCT116 cells, compared with the other growth-inhibitory genes", "result": "weakest induction"}, {"measurement": "Amphiregulin induction, dependence on p53", "setting": "[5]; wild type vs p53−/− HCT116", "result": "only moderate dependence on p53"}, {"measurement": "BTG1 induction, dependence on p53", "setting": "[5]; wild type vs p53−/− HCT116", "result": "independent of p53"}, {"measurement": "IGFBP-6 induction, dependence on p53", "setting": "[5]; wild type vs p53−/− HCT116", "result": "no dependence on p53"}, {"measurement": "MIC-1 induction, dependence on p53", "setting": "[5]; wild type vs p53−/− HCT116", "result": "only weak dependence on p53"}]}
